From paper PMC8362039, “Development of Non‐Hydrolysable Oligosaccharide Activity‐Based Inactivators for Endoglycanases: A Case Study on α‐1,6 Mannanases” (Chemistry (Weinheim an Der Bergstrasse, Germany), 2021) come the findings set out here.

Holding throughout (experiment): intact protein mass spectrometry
Format in all cases: binding

Assay [1] concerns the target T1, BcGH76 (Niallia circulans, UniProt Q9Z4P9).
T1 construct: gene aman6; recombinant GH76 endo-mannanase; borders and tags not given; R341Q crystallisation variant also used
The note with it: probe:protein 10:1, 25 mM HEPES pH 7, 100 mM NaCl, 293 K, 22 h. The source says:
(§1) intact protein mass spectrometry on BcGH76

Assay [2] deals with T2, BcGH76 (Niallia circulans, UniProt Q9Z4P9, R341Q).
T2 construct: gene aman6; recombinant GH76 endo-mannanase; borders and tags not given; R341Q crystallisation variant also used
T2 sequence (Q9Z4P9 entry or part of it R341Q): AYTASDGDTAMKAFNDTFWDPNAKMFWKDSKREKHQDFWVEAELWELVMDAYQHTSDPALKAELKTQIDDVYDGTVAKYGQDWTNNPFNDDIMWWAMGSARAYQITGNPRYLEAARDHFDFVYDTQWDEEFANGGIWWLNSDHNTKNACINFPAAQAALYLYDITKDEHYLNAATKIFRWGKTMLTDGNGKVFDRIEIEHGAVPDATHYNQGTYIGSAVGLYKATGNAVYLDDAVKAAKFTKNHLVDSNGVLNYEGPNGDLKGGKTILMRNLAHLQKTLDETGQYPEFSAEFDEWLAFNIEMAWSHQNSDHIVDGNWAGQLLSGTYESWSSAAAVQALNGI
The note with it: covalent, probe:protein 10:1, 25 mM HEPES pH 7, 100 mM NaCl, 293 K.
Source text: as §1

Assay [3] concerns the target T3, BcGH76 (Niallia circulans, UniProt Q9Z4P9, D125N).
T3 construct: gene aman6; recombinant GH76 endo-mannanase; borders and tags not given; R341Q crystallisation variant also used
The note with it: probe:protein 10:1, 25 mM HEPES pH 7, 100 mM NaCl, 293 K.
Source text: as §1

Assay [4] addresses T4, BcGH76 (Niallia circulans, UniProt Q9Z4P9, D125N/R341Q).
T4 construct: gene aman6; recombinant GH76 endo-mannanase; borders and tags not given; R341Q crystallisation variant also used
The note with it: covalent, probe:protein 10:1, 25 mM HEPES pH 7, 100 mM NaCl, 293 K.
Source text: as §1

Molecules are shown by their SMILES.

T1 sequence (Q9Z4P9 entry or part of it): as the sequence (Q9Z4P9 entry or part of it R341Q) above, with Q307R counted along it
T3 sequence (Q9Z4P9 entry or part of it D125N): as the sequence (Q9Z4P9 entry or part of it R341Q) above, with D91N, Q307R counted along it
T4 sequence (Q9Z4P9 entry or part of it D125N/R341Q): as the sequence (Q9Z4P9 entry or part of it R341Q) above, with D91N counted along it

In the case of `OC[C@H]1O[C@H](OC[C@@H]2[C@@H](O)[C@H](O)[C@H](O)[C@H]3O[C@@H]23)[C@@H](O)[C@@H](O)[C@@H]1O` [compound 1, α‐1,6‐α‐manno‐cyclophellitol disaccharide 1], on BcGH76 [1], the covalent labelling was found to be 30%. Moreover, on BcGH76 [2], the “22 h incubation / 1” value is 30%.
In turn, `OC[C@H]1O[C@H](OC[C@H]2O[C@H](OC[C@@H]3[C@@H](O)[C@H](O)[C@H](O)[C@H]4O[C@@H]34)[C@@H](O)[C@@H](O)[C@@H]2O)[C@@H](O)[C@@H](O)[C@@H]1O` [compound 2, trisaccharide 2] returned a covalent labelling at BcGH76 [1] of 30%. Also, the “22 h incubation / 2” value at BcGH76 [3] (covalent) and on BcGH76 [4] was 85% in each case. In addition, the “16 h incubation / 2” value at BcGH76 [2] (22 h) is listed as 17%.
Molecule `OC[C@H]1O[C@H](OC[C@H]2C[C@H](OC[C@@H]3[C@@H](O)[C@H](O)[C@H](O)[C@H]4O[C@@H]34)[C@@H](O)[C@@H](O)[C@@H]2O)[C@@H](O)[C@@H](O)[C@@H]1O` [compound 3, carba‐trisaccharide cyclophellitol 3] returned a percent covalent labelling on BcGH76 [1] of 100%. Further, on BcGH76 [3] (22 h), the “covalent labelling of protein (%)” value is given as 44%. For the same molecule, at BcGH76 [4], the “22 h incubation / 3” value stood at 45%. Moreover, at BcGH76 [2] (22 h), the “16 h incubation / 3” value is on record as 100%.
